# Like-named read-outs stand apart in the source and are kept apart here.
# Biological target: SARS-CoV-2 Papain-Like Protease (PLpro) (Severe acute respiratory syndrome coronavirus 2 (2019-nCoV) (SARS-CoV-2), UniProt P0DTD1)
# Experiment: biochemical
# Conditions: read-out: PLpro IC50
# [1] = PLpro enzymatic fluorescence assay, class symbols
# [2] = SARS-CoV-2 PLpro enzymatic fluorescence assay
Compound,IC50 [1] [µM],IC50 [2] [µM]
"COc1cc(C2(NC(=O)c3cc(OC[C@@H]4CCN4C)ccc3C)CC2)c2ccc(Cl)nc2c1 [Compound 617, (S)-N-(1-(2-Chloro-7-methoxyquinolin-5-yl)cyclopropyl)-2-methyl-5-((1-methylazetidin-2-yl)methoxy)benzamide]",< 0.1,–
"Cc1ccc(OC[C@@H]2CCN2C)cc1C(=O)NC1(c2cc(-n3cccn3)cc3ncccc23)CC1 [Compound 619, (S)-N-(1-(7-(1H-Pyrazol-1-yl)quinolin-5-yl)cyclopropyl)-2-methyl-5-((1-methylazetidin-2-yl)methoxy)benzamide]",< 0.1,–
"C#Cc1cc(C2(NC(=O)c3cc(OC[C@@H]4CCN4C)ccc3C)CC2)c2cccnc2c1 [Compound 620, (S)-N-(1-(7-Ethynylquinolin-5-yl)cyclopropyl)-2-methyl-5-((1-methylazetidin-2-yl)methoxy)benzamide]",< 0.1,–
"Cc1ccc(OC[C@@H]2CCN2C)cc1C(=O)NC1(c2cc(-c3cc4ccccc4s3)cc3ncccc23)CC1 [Compound 621, (S)-N-(1-(7-(Benzo[b]thiophen-2-yl)quinolin-5-yl)cyclopropyl)-2-methyl-5-((1-methylazetidin-2-yl)methoxy)benzamide]",< 0.1,–
"Cc1ccc(OC[C@@H]2CCN2C)cc1C(=O)NC1(c2cc(-c3ccc(Cl)s3)cc3ncccc23)CC1 [Compound 623, (S)-N-(1-(7-(5-Chlorothiophen-2-yl)quinolin-5-yl)cyclopropyl)-2-methyl-5-((1-methylazetidin-2-yl)methoxy)benzamide]",< 0.1,–
"Cc1ccc(OC[C@@H]2CCN2C)cc1C(=O)NC1(c2cc(Cl)cc3ncccc23)CC1 [Compound 624, (S)-N-(1-(7-Chloroquinolin-5-yl)cyclopropyl)-2-methyl-5-((1-methylazetidin-2-yl)methoxy)benzamide]",–,< 0.1
"COc1cc(C2(NC(=O)c3cc(OC[C@@H]4CCN4C)ccc3C)CC2)c2ccc(C)nc2c1 [Compound 625, (S)-N-(1-(7-Methoxy-2-methylquinolin-5-yl)cyclopropyl)-2-methyl-5-((1-methylazetidin-2-yl)methoxy)benzamide]",< 0.1,–
"COc1cc(C2(NC(=O)c3cc(OCCNC(C)(C)C)ccc3C)CC2)c2cccnc2c1 [Compound 626, 5-(2-(tert-Butylamino)ethoxy)-N-(1-(7-methoxyquinolin-5-yl)cyclopropyl)-2-methylbenzamide]",< 0.1,–
"Cc1ccc(OC[C@@H]2CCN2C)cc1C(=O)NC1(c2cc(N(C)C)cc3ncccc23)CC1 [Compound 627, (S)-N-(1-(7-(Dimethylamino)quinolin-5-yl)cyclopropyl)-2-methyl-5-((1-methylazetidin-2-yl)methoxy)benzamide]",–,< 0.1
"CNCCOc1ccc(C)c(C(=O)NC2(c3cc(-c4cccs4)cc4ncccc34)CC2)c1 [Compound 630, 2-Methyl-5-(2-(methylamino)ethoxy)-N-(1-(7-(thiophen-2-yl)quinolin-5-yl)cyclopropyl)benzamide]",< 0.1,–
"Cc1ccc(OC[C@@H]2CCN2C)cc1C(=O)NC1(c2cc(-c3cc(Cl)cs3)cc3ncccc23)CC1 [Compound 632, (S)-N-(1-(7-(4-Chlorothiophen-2-yl)quinolin-5-yl)cyclopropyl)-2-methyl-5-((1-methylazetidin-2-yl)methoxy)benzamide]",< 0.1,–
"Cc1ccc(OC[C@@H]2CCN2C)cc1C(=O)NC1(c2cc(-c3cc[nH]n3)cc3ncccc23)CC1 [Compound 633, (S)-N-(1-(7-(1H-Pyrazol-3-yl)quinolin-5-yl)cyclopropyl)-2-methyl-5-((1-methylazetidin-2-yl)methoxy)benzamide]",< 0.1,–
"Cc1ccc(OC[C@@H]2CCN2)cc1C(=O)NC1(c2cc(-c3ccn(C)n3)cc3ncccc23)CC1 [Compound 634, (S)-5-(Azetidin-2-ylmethoxy)-2-methyl-N-(1-(7-(1-methyl-1H-pyrazol-3-yl)quinolin-5-yl)cyclopropyl)benzamide]",< 0.1,–
"Cc1cc(-c2cc(C3(NC(=O)c4cc(OC[C@@H]5CCN5)ccc4C)CC3)c3cccnc3c2)n[nH]1 [Compound 635, (S)-5-(Azetidin-2-ylmethoxy)-2-methyl-N-(1-(7-(5-methyl-1H-pyrazol-3-yl)quinolin-5-yl)cyclopropyl)benzamide]",< 0.1,–
"Cc1ccc(OC[C@@H]2CCN2)cc1C(=O)NC1(c2cc(-c3cc[nH]n3)cc3ncccc23)CC1 [Compound 636, (S)-N-(1-(7-(1H-Pyrazol-3-yl)quinolin-5-yl)cyclopropyl)-5-(azetidin-2-ylmethoxy)-2-methylbenzamide]",< 0.1,–
"Cc1ccc(OC[C@@H]2CCN2)cc1C(=O)NC1(c2cc(-c3cccnc3)cc3ncccc23)CC1 [Compound 637, (S)-5-(Azetidin-2-ylmethoxy)-2-methyl-N-(1-(7-(pyridin-3-yl)quinolin-5-yl)cyclopropyl)benzamide]",< 0.1,–
"CC(=O)c1cc(C2(NC(=O)c3cc(OC[C@@H]4CCN4C)ccc3C)CC2)c2cccnc2c1 [Compound 638, (S)-N-(1-(7-Acetylquinolin-5-yl)cyclopropyl)-2-methyl-5-((1-methylazetidin-2-yl)methoxy)benzamide]",< 0.1,–

Compound,IC50 [1] [µM],IC50 [2] [µM]
"CNCCOc1ccc(C)c(C(=O)NC2(c3cc(-c4ccnn4C)cc4ncccc34)CC2)c1 [Compound 639, 2-Methyl-N-(1-(7-(1-methyl-1H-pyrazol-5-yl)quinolin-5-yl)cyclopropyl)-5-(2-(methylamino)ethoxy)benzamide]",< 0.1,–
"Cc1cc(-c2cc(C3(NC(=O)c4cc(OC[C@@H]5CCN5)ccc4C)CC3)c3cccnc3c2)cs1 [Compound 640, (S)-5-(Azetidin-2-ylmethoxy)-2-methyl-N-(1-(7-(5-methylthiophen-3-yl)quinolin-5-yl)cyclopropyl)benzamide]",< 0.1,–
"Cc1cc(-c2cc(C3(NC(=O)c4cc(OC[C@@H]5CCN5)ccc4C)CC3)c3cccnc3c2)c(C)o1 [Compound 641, (S)-5-(Azetidin-2-ylmethoxy)-N-(1-(7-(2,5-dimethylfuran-3-yl)quinolin-5-yl)cyclopropyl)-2-methylbenzamide]",< 0.1,–
"Cc1ccc(OC[C@@H]2CCN2)cc1C(=O)NC1(c2cc(-c3cn[nH]c3)cc3ncccc23)CC1 [Compound 642, (S)-N-(1-(7-(1H-Pyrazol-4-yl)quinolin-5-yl)cyclopropyl)-5-(azetidin-2-ylmethoxy)-2-methylbenzamide]",< 0.1,–
"CC(=O)c1ccc(-c2cc(C3(NC(=O)c4cc(OC[C@@H]5CCN5)ccc4C)CC3)c3cccnc3c2)s1 [Compound 643, (S)-N-(1-(7-(5-Acetylthiophen-2-yl)quinolin-5-yl)cyclopropyl)-5-(azetidin-2-ylmethoxy)-2-methylbenzamide]",< 0.1,–
"Cc1ccc(OC[C@@H]2CCN2C)cc1C(=O)NC1(c2cc(-c3ccn(C(F)F)n3)cc3ncccc23)CC1 [Compound 644, (S)-N-(1-(7-(1-(Difluoromethyl)-1H-pyrazol-3-yl)quinolin-5-yl)cyclopropyl)-2-methyl-5-((1-methylazetidin-2-yl)methoxy)benzamide]",< 0.1,–
"Cc1ccc(OC[C@@H]2CCN2)cc1C(=O)NC1(c2cc(-c3ccoc3)cc3ncccc23)CC1 [Compound 645, (S)-5-(Azetidin-2-ylmethoxy)-N-(1-(7-(furan-3-yl)quinolin-5-yl)cyclopropyl)-2-methylbenzamide]",< 0.1,–
"Cc1ccc(-c2cc(C3(NC(=O)c4cc(OC[C@@H]5CCN5)ccc4C)CC3)c3cccnc3c2)o1 [Compound 646, (S)-5-(Azetidin-2-ylmethoxy)-2-methyl-N-(1-(7-(5-methylfuran-2-yl)quinolin-5-yl)cyclopropyl)benzamide]",< 0.1,–
"CNCCOc1ccc(C)c(C(=O)NC2(c3cc(-c4ccn(C)n4)cc4ncccc34)CC2)c1 [Compound 647, 2-Methyl-N-(1-(7-(1-methyl-1H-pyrazol-3-yl)quinolin-5-yl)cyclopropyl)-5-(2-(methylamino)ethoxy)benzamide]",< 0.1,–
"Cc1ccc(OC[C@@H]2CCN2C)cc1C(=O)NC1(c2cc(C3CCCC3)cc3ncccc23)CC1 [Compound 648, (S)-N-(1-(7-Cyclopentylquinolin-5-yl)cyclopropyl)-2-methyl-5-((1-methylazetidin-2-yl)methoxy)benzamide]",< 0.1,–
"Cc1ccc(OC[C@@H]2CCN2)cc1C(=O)NC1(c2cc(-c3ccnn3C)cc3ncccc23)CC1 [Compound 649, (S)-5-(Azetidin-2-ylmethoxy)-2-methyl-N-(1-(7-(1-methyl-1H-pyrazol-5-yl)quinolin-5-yl)cyclopropyl)benzamide]",< 0.1,–
"C=C(c1cc(C2(NC(=O)c3cc(OC[C@@H]4CCN4C)ccc3C)CC2)c2cccnc2c1)C(F)(F)F [Compound 650, (S)-2-Methyl-5-((1-methylazetidin-2-yl)methoxy)-N-(1-(7-(3,3,3-trifluoroprop-1-en-2-yl)quinolin-5-yl)cyclopropyl)benzamide]",< 0.1,–
"Cc1cc(-c2cc(C3(NC(=O)c4cc(OC[C@@H]5CCN5C)ccc4C)CC3)c3cccnc3c2)n[nH]1 [Compound 651, (S)-2-Methyl-N-(1-(7-(5-methyl-1H-pyrazol-3-yl)quinolin-5-yl)cyclopropyl)-5-((1-methylazetidin-2-yl)methoxy)benzamide]",< 0.1,–
"Cc1ccc(OC[C@@H]2CCN2C)cc1C(=O)NC1(c2cc(-c3cn[nH]c3)cc3ncccc23)CC1 [Compound 652, (S)-N-(1-(7-(1H-Pyrazol-4-yl)quinolin-5-yl)cyclopropyl)-2-methyl-5-((1-methylazetidin-2-yl)methoxy)benzamide]",< 0.1,–
"Cc1ccc(-c2cc(C3(NC(=O)c4cc(OC[C@@H]5CCN5C)ccc4C)CC3)c3cccnc3c2)o1 [Compound 654, (S)-2-Methyl-5-((1-methylazetidin-2-yl)methoxy)-N-(1-(7-(5-methylfuran-2-yl)quinolin-5-yl)cyclopropyl)benzamide]",< 0.1,–
"Cc1ccc(OC[C@@H]2CCN2C)cc1C(=O)NC1(c2cc(-c3ccoc3)cc3ncccc23)CC1 [Compound 655, (S)—N-(1-(7-(Furan-3-yl)quinolin-5-yl)cyclopropyl)-2-methyl-5-((1-methylazetidin-2-yl)methoxy)benzamide]",< 0.1,–
